# Assay results reported in publication PMC5762315, “Inhibition of polo-like kinase 4 (PLK4): a new therapeutic option for rhabdoid tumors and pediatric medulloblastoma” (Oncotarget, 2017).
# Where “and” joins values, the source holds several entries; their conditions need not be identical. Equal values may be shown once.
# How the values were obtained:
# Assay in all cases: LanthaScreen Eu Kinase Binding Assay, panel of 486 biochemical kinase assays
# various kinases [1] = molecular target: various kinases (Homo sapiens, UniProt Q09013); conditions: DMPK
# various kinases (Homo sapiens, UniProt Q09013), sequence (Q09013 whole entry): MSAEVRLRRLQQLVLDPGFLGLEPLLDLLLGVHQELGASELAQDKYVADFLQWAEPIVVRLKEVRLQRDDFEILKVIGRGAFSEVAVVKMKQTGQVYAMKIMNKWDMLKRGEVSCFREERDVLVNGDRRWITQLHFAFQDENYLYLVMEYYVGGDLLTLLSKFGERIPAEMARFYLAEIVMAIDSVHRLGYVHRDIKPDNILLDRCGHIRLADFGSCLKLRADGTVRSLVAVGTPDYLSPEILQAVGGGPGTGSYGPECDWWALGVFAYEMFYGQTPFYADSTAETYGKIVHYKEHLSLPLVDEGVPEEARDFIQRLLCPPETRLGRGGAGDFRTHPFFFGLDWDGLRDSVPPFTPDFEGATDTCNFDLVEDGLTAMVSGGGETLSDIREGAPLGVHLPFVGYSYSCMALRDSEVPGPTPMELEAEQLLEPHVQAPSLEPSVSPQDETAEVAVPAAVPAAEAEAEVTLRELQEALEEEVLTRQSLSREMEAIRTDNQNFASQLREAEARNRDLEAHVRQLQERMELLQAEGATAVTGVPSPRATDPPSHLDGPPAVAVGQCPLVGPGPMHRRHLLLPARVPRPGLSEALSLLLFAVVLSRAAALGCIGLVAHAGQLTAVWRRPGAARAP
# various kinases [2] = molecular target: various kinases (Homo sapiens, UniProt P37023); conditions: ACVRL1 (ALK1)
# various kinases (Homo sapiens, UniProt P37023), sequence (P37023 22-503): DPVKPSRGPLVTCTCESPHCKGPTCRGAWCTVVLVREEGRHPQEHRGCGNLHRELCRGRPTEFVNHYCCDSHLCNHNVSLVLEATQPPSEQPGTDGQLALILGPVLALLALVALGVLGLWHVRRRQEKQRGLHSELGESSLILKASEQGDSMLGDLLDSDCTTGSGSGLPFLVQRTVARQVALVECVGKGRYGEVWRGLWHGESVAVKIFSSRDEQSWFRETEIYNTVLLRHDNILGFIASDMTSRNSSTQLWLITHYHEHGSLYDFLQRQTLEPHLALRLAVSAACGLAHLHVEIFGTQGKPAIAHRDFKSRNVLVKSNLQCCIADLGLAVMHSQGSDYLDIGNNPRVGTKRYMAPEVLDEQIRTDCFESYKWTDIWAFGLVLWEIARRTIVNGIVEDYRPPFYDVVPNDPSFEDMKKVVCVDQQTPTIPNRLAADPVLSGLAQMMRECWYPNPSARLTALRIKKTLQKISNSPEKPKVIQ
# various kinases [3] = molecular target: various kinases (Homo sapiens, UniProt Q14004); conditions: CDK13/cyclin K
# various kinases [4] = molecular target: various kinases (Homo sapiens, UniProt P22607, G697C); conditions: FGFR3 G697C
# various kinases [5] = molecular target: various kinases (Homo sapiens, UniProt Q92918); conditions: MAP4K1 (HPK1)
# various kinases (Homo sapiens, UniProt Q92918), sequence (Q92918 whole entry): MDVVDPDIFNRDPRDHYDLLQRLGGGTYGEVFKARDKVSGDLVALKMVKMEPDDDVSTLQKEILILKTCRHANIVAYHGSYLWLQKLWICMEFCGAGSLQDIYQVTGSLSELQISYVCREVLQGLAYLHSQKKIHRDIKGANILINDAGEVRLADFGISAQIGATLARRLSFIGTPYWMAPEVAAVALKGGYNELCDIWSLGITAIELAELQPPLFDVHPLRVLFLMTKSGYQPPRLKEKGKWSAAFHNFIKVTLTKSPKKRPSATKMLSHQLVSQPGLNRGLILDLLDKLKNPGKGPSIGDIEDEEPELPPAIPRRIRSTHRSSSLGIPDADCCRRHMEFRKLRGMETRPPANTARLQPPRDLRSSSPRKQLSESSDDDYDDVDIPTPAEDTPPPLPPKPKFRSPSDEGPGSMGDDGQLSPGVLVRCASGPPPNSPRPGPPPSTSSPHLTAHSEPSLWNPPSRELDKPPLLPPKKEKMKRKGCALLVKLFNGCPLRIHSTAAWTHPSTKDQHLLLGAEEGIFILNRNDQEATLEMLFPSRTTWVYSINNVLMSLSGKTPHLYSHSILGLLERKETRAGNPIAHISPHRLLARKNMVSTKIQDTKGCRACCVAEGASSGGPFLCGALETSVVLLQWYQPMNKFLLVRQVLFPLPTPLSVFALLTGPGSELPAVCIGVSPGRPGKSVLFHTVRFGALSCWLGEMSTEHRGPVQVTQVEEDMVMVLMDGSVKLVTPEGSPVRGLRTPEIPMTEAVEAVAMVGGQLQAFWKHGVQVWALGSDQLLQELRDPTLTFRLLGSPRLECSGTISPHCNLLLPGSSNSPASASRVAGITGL
# various kinases [6] = molecular target: various kinases (Homo sapiens, UniProt Q9UM73, F1174L); conditions: ALK F1174L
# various kinases [7] = molecular target: various kinases (Homo sapiens, UniProt Q2M2I8); conditions: AAK1
# various kinases [8] = molecular target: various kinases (Homo sapiens, UniProt P53671); conditions: LIMK2
# various kinases [9] = molecular target: various kinases (Homo sapiens, UniProt Q9UBE8); conditions: NLK
# various kinases (Homo sapiens, UniProt Q9UBE8), sequence (Q9UBE8 whole entry): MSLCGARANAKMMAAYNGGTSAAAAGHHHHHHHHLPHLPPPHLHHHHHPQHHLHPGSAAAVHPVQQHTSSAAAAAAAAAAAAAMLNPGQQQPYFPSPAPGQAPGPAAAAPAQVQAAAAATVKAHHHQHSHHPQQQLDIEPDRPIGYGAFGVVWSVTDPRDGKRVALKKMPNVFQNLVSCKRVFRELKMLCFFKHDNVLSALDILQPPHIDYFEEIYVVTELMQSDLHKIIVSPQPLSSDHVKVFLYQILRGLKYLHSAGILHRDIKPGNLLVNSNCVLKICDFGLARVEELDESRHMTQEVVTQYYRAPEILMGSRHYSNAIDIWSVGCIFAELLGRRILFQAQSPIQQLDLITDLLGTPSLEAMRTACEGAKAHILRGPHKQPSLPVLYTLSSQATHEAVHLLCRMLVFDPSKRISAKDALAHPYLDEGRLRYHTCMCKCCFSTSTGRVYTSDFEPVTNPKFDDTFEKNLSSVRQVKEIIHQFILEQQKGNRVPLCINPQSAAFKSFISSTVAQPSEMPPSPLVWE
# various kinases [10] = molecular target: various kinases (Homo sapiens, UniProt P53779); conditions: MAPK10 (JNK3)
# various kinases [11] = molecular target: various kinases (Homo sapiens, UniProt O94921); conditions: CDK14 (PFTK1)/cyclin Y
# various kinases (Homo sapiens, UniProt O94921), sequence (O94921 whole entry): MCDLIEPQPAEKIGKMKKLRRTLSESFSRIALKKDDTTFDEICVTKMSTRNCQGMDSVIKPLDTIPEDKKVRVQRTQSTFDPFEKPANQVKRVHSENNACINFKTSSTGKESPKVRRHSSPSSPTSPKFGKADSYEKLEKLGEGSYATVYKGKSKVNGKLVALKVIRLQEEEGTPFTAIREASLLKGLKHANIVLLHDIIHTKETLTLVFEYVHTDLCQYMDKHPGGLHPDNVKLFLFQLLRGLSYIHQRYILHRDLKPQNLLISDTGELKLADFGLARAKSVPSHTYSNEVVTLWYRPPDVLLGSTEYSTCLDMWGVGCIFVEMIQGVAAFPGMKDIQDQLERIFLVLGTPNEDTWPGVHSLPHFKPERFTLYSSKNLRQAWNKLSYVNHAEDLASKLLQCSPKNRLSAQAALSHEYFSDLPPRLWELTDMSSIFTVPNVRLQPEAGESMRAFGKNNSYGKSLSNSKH
# various kinases [12] = molecular target: various kinases (Homo sapiens, UniProt P57059); conditions: kinase SIK1; LanthaScreen Binding
# various kinases (Homo sapiens, UniProt P57059), sequence (P57059 whole entry): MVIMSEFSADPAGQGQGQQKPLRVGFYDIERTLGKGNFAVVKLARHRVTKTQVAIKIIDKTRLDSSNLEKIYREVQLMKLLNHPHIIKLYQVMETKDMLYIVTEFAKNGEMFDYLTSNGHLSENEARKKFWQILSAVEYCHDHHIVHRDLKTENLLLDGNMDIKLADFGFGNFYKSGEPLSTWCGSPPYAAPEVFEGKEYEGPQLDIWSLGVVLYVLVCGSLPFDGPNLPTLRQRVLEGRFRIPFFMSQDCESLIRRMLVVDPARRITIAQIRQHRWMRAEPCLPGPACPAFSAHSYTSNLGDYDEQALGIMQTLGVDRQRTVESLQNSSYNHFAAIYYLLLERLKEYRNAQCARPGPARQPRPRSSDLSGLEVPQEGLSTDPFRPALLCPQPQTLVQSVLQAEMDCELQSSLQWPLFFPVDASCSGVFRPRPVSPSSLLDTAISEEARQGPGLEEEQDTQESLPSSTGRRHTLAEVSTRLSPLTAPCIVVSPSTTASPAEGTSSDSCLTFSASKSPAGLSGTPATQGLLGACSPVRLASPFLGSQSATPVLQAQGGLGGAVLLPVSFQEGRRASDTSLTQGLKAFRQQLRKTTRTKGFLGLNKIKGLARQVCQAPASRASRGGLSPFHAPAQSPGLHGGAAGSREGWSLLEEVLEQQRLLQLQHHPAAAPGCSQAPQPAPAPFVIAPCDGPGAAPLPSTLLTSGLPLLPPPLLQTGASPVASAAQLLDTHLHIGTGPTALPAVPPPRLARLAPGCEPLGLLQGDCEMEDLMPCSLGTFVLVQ
# various kinases [13] = molecular target: T1, various kinases (Homo sapiens, UniProt Q8IYT8); conditions: kinase ULK2; LanthaScreen Binding
# T1 sequence (Q8IYT8 1-1036): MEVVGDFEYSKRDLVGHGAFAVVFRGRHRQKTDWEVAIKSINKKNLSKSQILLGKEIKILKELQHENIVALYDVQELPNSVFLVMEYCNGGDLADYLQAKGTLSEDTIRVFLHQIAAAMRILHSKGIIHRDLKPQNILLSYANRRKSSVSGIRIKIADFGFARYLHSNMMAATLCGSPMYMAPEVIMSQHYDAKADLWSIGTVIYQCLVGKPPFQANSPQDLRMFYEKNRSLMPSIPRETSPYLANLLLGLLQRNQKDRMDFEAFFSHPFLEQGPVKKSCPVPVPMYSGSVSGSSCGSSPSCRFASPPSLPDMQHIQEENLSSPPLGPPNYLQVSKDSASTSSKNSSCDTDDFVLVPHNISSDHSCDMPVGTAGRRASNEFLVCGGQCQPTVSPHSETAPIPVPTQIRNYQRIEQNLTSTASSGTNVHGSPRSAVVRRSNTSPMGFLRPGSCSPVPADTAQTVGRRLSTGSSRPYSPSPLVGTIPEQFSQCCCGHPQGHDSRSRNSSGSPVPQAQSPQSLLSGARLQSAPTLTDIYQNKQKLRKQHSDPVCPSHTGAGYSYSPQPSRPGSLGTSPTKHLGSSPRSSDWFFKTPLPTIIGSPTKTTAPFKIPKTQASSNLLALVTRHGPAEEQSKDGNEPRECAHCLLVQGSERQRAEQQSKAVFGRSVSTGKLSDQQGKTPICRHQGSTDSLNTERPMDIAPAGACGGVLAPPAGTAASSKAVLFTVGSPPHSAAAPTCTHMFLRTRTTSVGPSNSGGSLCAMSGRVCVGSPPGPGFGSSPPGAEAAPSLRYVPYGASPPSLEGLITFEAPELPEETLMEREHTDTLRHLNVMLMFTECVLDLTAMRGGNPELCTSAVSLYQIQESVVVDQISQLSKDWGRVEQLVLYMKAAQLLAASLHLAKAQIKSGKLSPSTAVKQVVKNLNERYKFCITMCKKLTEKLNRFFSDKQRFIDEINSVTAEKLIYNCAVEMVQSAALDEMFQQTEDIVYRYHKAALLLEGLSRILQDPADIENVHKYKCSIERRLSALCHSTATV
# various kinases [14] = molecular target: various kinases (Homo sapiens, UniProt Q15835); conditions: GRK1
# various kinases [15] = molecular target: various kinases (Homo sapiens, UniProt Q02750, S218D/S222D); conditions: MAP2K1 (MEK1) S218D S222D
# various kinases [16] = molecular target: various kinases (Homo sapiens, UniProt O43353); conditions: kinase RIPK2; LanthaScreen Binding
# various kinases (Homo sapiens, UniProt O43353), sequence (O43353 whole entry): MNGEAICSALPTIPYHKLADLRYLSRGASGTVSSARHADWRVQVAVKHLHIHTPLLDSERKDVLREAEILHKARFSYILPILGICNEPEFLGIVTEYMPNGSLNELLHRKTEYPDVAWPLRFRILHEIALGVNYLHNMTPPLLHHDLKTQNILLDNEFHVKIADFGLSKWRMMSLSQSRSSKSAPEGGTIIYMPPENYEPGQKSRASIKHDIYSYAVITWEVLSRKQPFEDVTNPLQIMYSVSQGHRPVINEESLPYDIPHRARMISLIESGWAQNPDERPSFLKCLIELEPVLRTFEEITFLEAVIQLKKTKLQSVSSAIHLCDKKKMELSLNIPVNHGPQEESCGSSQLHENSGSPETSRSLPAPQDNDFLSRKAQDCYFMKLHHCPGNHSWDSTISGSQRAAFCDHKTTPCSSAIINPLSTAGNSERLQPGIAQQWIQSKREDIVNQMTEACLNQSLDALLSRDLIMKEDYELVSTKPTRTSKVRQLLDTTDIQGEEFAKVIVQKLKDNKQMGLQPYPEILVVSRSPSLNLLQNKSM
# various kinases [17] = molecular target: various kinases (Homo sapiens, UniProt P00519, Q252H); conditions: ABL1 Q252H
# various kinases [18] = molecular target: various kinases (Homo sapiens, UniProt P36894); conditions: BMPR1A (ALK3)
# various kinases [19] = molecular target: various kinases (Homo sapiens, UniProt O00311); conditions: CDC7/DBF4
# various kinases [20] = molecular target: various kinases (Homo sapiens, UniProt P22607, K650M); conditions: FGFR3 K650M
# various kinases (Homo sapiens, UniProt P22607, K650M), sequence (P22607 23-806 K650M): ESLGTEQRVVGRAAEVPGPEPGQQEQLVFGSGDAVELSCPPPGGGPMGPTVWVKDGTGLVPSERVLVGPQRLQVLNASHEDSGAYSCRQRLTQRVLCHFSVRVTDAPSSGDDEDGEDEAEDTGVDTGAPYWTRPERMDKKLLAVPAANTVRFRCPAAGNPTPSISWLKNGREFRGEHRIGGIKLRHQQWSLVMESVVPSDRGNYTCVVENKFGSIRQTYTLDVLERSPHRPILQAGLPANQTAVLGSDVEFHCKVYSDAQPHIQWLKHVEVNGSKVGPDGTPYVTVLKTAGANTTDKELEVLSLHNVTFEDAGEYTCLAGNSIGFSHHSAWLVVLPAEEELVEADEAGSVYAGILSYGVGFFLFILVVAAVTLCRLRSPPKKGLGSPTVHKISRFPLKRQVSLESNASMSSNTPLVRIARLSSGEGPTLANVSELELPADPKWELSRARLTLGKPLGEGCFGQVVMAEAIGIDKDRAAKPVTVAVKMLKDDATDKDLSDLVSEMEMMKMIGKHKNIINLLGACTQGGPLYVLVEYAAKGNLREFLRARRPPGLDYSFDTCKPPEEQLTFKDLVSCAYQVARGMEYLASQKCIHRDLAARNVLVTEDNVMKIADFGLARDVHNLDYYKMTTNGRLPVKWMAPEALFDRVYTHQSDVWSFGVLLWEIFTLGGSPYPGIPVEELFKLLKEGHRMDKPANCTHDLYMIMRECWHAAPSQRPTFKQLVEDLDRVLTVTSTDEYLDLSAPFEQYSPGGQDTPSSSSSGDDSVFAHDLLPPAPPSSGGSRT
structure (smiles),measurement,setting,value
COc1ccc2c(c1)[C@]1(C[C@H]1c1ccc3c(/C=C/c4ccc(CN5C[C@@H](C)O[C@@H](C)C5)cc4)n[nH]c3c1)C(=O)N2 [CFI-400945],% Inhibition,various kinases [1],1% and -3%
same,% Inhibition,various kinases [2],10% and 0%
same,% Inhibition,various kinases [3],-6% and 0%
same,% Inhibition,various kinases [4],30% and 40%
same,% Inhibition,various kinases [5],45% and 35%
same,% Inhibition,various kinases [6],52% and 50%
same,% Inhibition,various kinases [7],9% and 6%
same,% Inhibition,various kinases [8],4% and 0%
same,% Inhibition,various kinases [9],-9% and -6%
same,% Inhibition,various kinases [10],3% and -3%
same,% Inhibition,various kinases [11],-4% and 2%
same,% Inhibition Average,various kinases [12],6%
same,% Inhibition Duplicate #1,various kinases [12],5%
same,% Inhibition Duplicate #2,various kinases [12],6%
same,% Inhibition Average,various kinases [13],6%
same,% Inhibition Duplicate #1,various kinases [13],2%
same,% Inhibition Duplicate #2,various kinases [13],11%
same,% Inhibition,various kinases [14],22% and 13%
same,% Inhibition,various kinases [15],4% and 10%
same,% Inhibition Average,various kinases [16],3%
same,% Inhibition Duplicate #1,various kinases [16],3%
same,% Inhibition Duplicate #2,various kinases [16],3%
same,% Inhibition,various kinases [17],72%
same,% Inhibition,various kinases [18],-4% and 3%
same,% Inhibition,various kinases [19],13% and 16%
same,% Inhibition,various kinases [20],44% and 48%
